# Experimental data taken from patent publication US5854240A, “Methylene blue for the treatment or prophylaxis of encephalopathy caused by ifosfamide” (Newcastle University Ventures Limited, priority 1993, dated 1998).
# Where “and” joins values, the source holds several entries; their conditions need not be identical. Equal values may be shown once. Entries after “also recorded” stand apart in the source; their conditions may differ.
# Assays:
# [1] = Urinary excretion of pyritinol and its metabolites in patients; assay type: in vivo, human
# From the text: It is believed that pyritinol elevates intracellular thiol concentrations thereby detoxifying the chloroethyl metabolites formed by ifosfamide. Pyritinol is metabolised by reduction of its centralised disulfide bond, presumably by glutathione reductase or a similar enzyme using GSH as its cofactor. Pyritinol is also known to be metabolised by S-methylation and S-oxidation into the following metabolites: [drawing 12] These metabolites are the excretable forms of pyritinol in urine. In patients not receiving ifosfamide treatment, virtually 100% of pyritinol will be excreted in its metabolised form into the urine. […] As was previously mentioned, without GSH as a cofactor, glutathione reductase is unable to reduce pyritinol into its metabolised form. It is therefore a further aspect of this invention to use the excretion of unmetabolised pyritinol as a biochemical marker for the onset of encephalopathy upon administration of ifosfamide.
# [2] = intravenous ifosfamide; Martindale, 28th Edition, 1982; cited from earlier work
# [3] = test system: small cell lung cancer; assay: Tumour response to chemotherapy, small cell lung cancer patients; assay type: in vivo, human
# From the text: (§1) They received six cycles of ifosfamide treatment using the identical dosage requirements as in Example 4.
# (§2) A patient was diagnosed with extensive small cell lung cancer with pleural effusion. Patient was prescribed ifosfamide/Vp-16/methylene blue treatment.
# [4] = test system: metastatic osteosarcoma; assay: Tumour response to chemotherapy, osteosarcoma patient; assay type: in vivo, human; details: Example 2; ifosfamide/adriamycin chemotherapy with methylene blue prophylaxis
# Experimental: (§3) A patient diagnosed with advanced metastatic osteosarcoma began a five day chemotherapy regime. Treatment consisted of a total dosage of 12 g/m^2 ifosfamide with 80% (by weight, based on the weight of ifosfamide) mesna and adriamycin (65 mg/m^2) divided into two doses. They also received ZOFRAN™ brand ondansetron (antiemetic), 8 mg, by intravenous injection and 200 mg pyritinol three times per day orally. All parenteral medicaments were given in a total of 2 liters 5% glucose solution.
# (§4) After three weeks from the end of the first cycle, the patient who was the subject of Example 1 again was given the same chemotherapeutic regime, except that this time they received 50 mg oral capsules of methylene blue prophylactically three times a day for the full course of treatment.
# [5] = GCMS analysis of urine of patient receiving ifosfamide and methylene blue; assay type: in vivo, human
# Experimental: 100 ml of urine from a patient having had received methylene blue (300 mg/day) and ifosfamide (3 mg/kg daily) was analysed. The urine was refluxed for 30 minutes with 2M hydrochloric acid in ethanol (50 ml). After sufficient heating, 50 mls each of H2 O and […] hexane were added, the mixture shaken. The organic phase was then reduced to dryness in vacuo on a rotary evaporator. The dry residue was reconstituted in 1M hexane (10 ml) and 1 μl aliquots were submitted to gas chromatography-mass spectrometry analysis (GCMS). A 16 meter OV-17 capillary column was used with a temperature programme set for 40° C. for 1 minute, 5° C. per minute gradient to 250° C. and 250° C. for 10 minutes. Electron impact mass spectra were obtained on the resulting chromatographic peaks of interest (See A, B, and C of FIG. 1). These peaks were analysed through a Fisons Autospec Q MASS LIB GCMS computer library of mass spectra developed by the Department of Organic Chemistry, University of Berne, Switzerland of known organic compounds (FIGS. 2-4).
# [6] = Nitrobenzyl pyridine (NBP) test of urine for alkylating metabolites of ifosfamide; assay type: in vivo, human
# [7] = test system: non small cell lung cancer; assay: Tumour response to chemotherapy, non small cell lung cancer patients; assay type: in vivo, human; details: Example 4; ifosfamide, VP-16, methylene blue; four cycles
# Experimental: (§5) A patient was diagnosed with non small cell lung cancer. They later developed brain, lung and mediastinal and bone metastases. The course of treatment included surgery, irradiation of the brain and chemotherapy. Dosage amounts for chemotherapy were as follows: ifosfamide (1 g/m^2) given intravenously for days 1-3; mesna 60% of intravenous ifosfamide dosage plus 800 mg orally twice daily for days 1-3; VP-16 (100 mg) given orally for days 1-8 and methylene blue (50 mg) was administered orally as a loading dose on day 1, with 3×50 mg administered orally on days 1-4.
# (§6) A patient was diagnosed with non small cell lung cancer with extensive mediastinal lymphnode metastases. They were originally prescribed a course of cisplatinum, VP-16 and velbe. […] Oral ifosfamide, VP-16, and methylene blue was then ordered, using the same dosage requirements as described in Example 4 above.
# [8] = test system: metastatic leiomyosarcoma; assay: Tumour response to chemotherapy, leiomyosarcoma patient; assay type: in vivo, human; details: Example 3; 1990, ifosfamide, adriamycin and dacarbazine, three cycles
# Experimental: (§7) In 1990, a patient with metastatic leiomyosarcoma was treated for lung metastases with ifosfamide, adriamycin and dacarbazine. They had three cycles of therapy at the time.
# (§8) In the second and third cycles, their dose of ifosfamide was 2 g/m^2 for three days.
# [9] = CNS toxicity/encephalopathy in patients on ifosfamide without methylene blue; assay type: in vivo, human
# Experimental: as §3, §7, §8
# (§9) At the request of the inventors, an independent clinical analysis was performed at the Northern Centre for Cancer Treatment, Newcastle Upon Tyne, United Kingdom, on a patient using a combintation of ifosfamide and methylene blue. A patient was diagnosed with adenocarcinoma of the oesophagus. They began chemotherapeutic treatment and was administered ifosfamide, Mitomycin C, and cisplatin. […] The patient eventually recovered. Upon administration of a third cycle of treatment, the patient was also given a prophylactic dosage of methylene blue.
# [10] = Prophylaxis of ifosfamide encephalopathy with methylene blue in patients; assay type: in vivo, human
# Experimental: as §4
# With the following treatment, they received four 50 mg doses of oral methylene blue. Their cytotoxic chemotherapy comprised three 3.2 g doses of ifosfamide (6 g/m^2 total dose) split over 3 days. The ifosfamide was administered as a continuous infusion with mesna. They also received 50 mg/m^2 adriamycin in two separate doses on days 2 and 3. Additionally,they received pyritinol (200 mg) twice per day on each day of the four day treatment.
# as §5, §1, §6
# A patient with non small cell lung cancer with involvment of the thoracic wall and retroperitoneal disease began one cycle of ifosfamide/methylene blue chemotherapy.
# as §2, §9
# [11] = Therapeutic rescue of ifosfamide encephalopathy with methylene blue in a patient; assay type: in vivo, human; details: Example 1
# Experimental: as §3
# 50 mg methylene blue, formulated at 2% w/v in water for injections, was administered by slow intravenous injection.
# About 4 hours later, the 50 mg methylene blue dose was repeated to consolidate the earlier treatment.
# [12] = test system: plasma amine oxidase; assay: Inhibition of plasma amine oxidase (2-chlorethylamine oxidation to chloracetaldehyde, GC); assay type: biochemical; details: methylene blue 50 μM; 2-chlorethylamine 100 μg/ml; human or bovine plasma, 36° C., 1 hour
# Experimental: Human or bovine plasma (2.0 ml) containing 2-chlorethylamine (100 μg/ml) was incubated in a shaking water bath at 36° C. for 1 hour. Aliquots (5 μl) were directly injected in to a Tenax packed gas chromatographic column maintained at 120° C. in a Perkin Elmer 3920B gas chromatograph. The product of 2-chlorethylamine oxidation by plasma amine oxidase, 2-chloracetaldehyde, was eluted at 9 minutes retention time. External calibration curves were used to determine concentrations of resulting chloracetaldehyde. […] The methylene blue is thus able to reduce the formation of chloracetaldehyde from 2-chlorethylamine by the plasma to 20% of that observed in the absence of methylene blue.
# [13] = Example 5, ifosfamide as in Example 4, six cycles
# [14] = Example 3, ifosfamide + methylene blue, first cycle
smiles,measurement,setting,value
Cc1ncc(CSSCc2cnc(C)c(O)c2CO)c(CO)c1O [pyritinol],form of pyritinol excreted in urine upon addition of methylene blue,"[1]; ifosfamide plus methylene blue, leucomethylene blue or similar compound",metabolised forms of pyritinol will subsequently be excreted in the urine
same,form of pyritinol excreted in urine upon ifosfamide,[1]; upon administration of ifosfamide,solely in its unmetabolised non-reduced form
"O=P1(NCCCl)OCCCN1CCCl (stereo not drawn) [ifosfamide, N,3-bis(2-chloroethyl)tetrahydro-2H-1,3,2-oxazaphosphorin-2-amine 2-oxide]","patients experiencing CNS side effects, especially confusion and lethargy",[2],about 10%
same,Lambert/Eaton Syndrome,[3]; [13],rapidly improved
same,remission,[3]; [13],good partial remission
same,remission,"[3]; Example 8, ifosfamide/Vp-16/methylene blue, after six cycles","partial remission of the lung, lymphnode and liver metastases"
same,remission,"[3]; Example 8, ifosfamide/Vp-16/methylene blue, after three cycles",partial remission in the primary and lymphnode metastases
same,lung metastases (lung scan),[4],lung metastases were almost gone
same,urinary metabolites identified by GCMS,"[5]; Example 10, methylene blue 300 mg/day and ifosfamide 3 mg/kg daily, urine refluxed with HCl in ethanol","2,2,2-trichlorethanal and 3-chloroproprionic acid ethyl ester and trichloracetic acid ethyl ester"
same,novel urinary metabolites among patients treated with ifosfamide and methylene blue,[5]; patients treated with both ifosfamide and methylene blue,"2,2,2-trichlorethanol and trichloracetic acid and 3-chlorproprionic acid"
same,NBP test of urine for alkylating metabolites of ifosfamide,"[6]; Example 1, first cycle",positive
same,NBP test of urine for alkylating metabolites,"[6]; Example 2, second cycle, with methylene blue",present
same,outcome,[7],died 6 months later due to tumour progression
same,remission,[8],complete remission of the lung metastases
same,signs of encephalopathy on ifosfamide,"[9]; Example 1, 12 g/m^2 total ifosfamide, mesna, adriamycin, day three and next morning, before methylene blue","displayed signs of encephalopathy-type hallucinations; also recorded: still drowsy, disorientated and confused"
same,encephalopathy on ifosfamide,"[9]; Example 3, 1990, first cycle, ifosfamide, adriamycin and dacarbazine",mild encephalopatic signs (such as confusion and amnesia) short of psychosis
same,encephalopathy on ifosfamide,"[9]; Example 3, 1990, second cycle, ifosfamide 2 g/m^2 for three days",psychotic and somnolent
same,encephalopathy on ifosfamide,"[9]; Example 3, 1990, third cycle, ifosfamide 2 g/m^2 for three days",severely psychotic and had hallucinations which continued not only after the end of the cycle but also after discharge from hospital
same,encephalopathy on ifosfamide,"[9]; Example 9, ifosfamide, Mitomycin C and cisplatin, following second cycle","developed ifosfamide encephalopathy, becoming drowsy and confused"
"CN(C)c1ccc2nc3ccc(N(C)C)cc3[s+]c2c1.[Cl-] [methylene blue, 3,7-bis(dimethylamino)phenothiazin-5-ium chloride]",disturbed nights during treatment,"[10]; Example 2, 50 mg oral capsules three times a day prophylactically",no disturbed nights
same,symptoms of encephalopathy during prophylactic treatment,"[10]; Example 3, four 50 mg oral doses, ifosfamide 6 g/m^2 total over 3 days, mesna, adriamycin, pyritinol, first cycle",no symptoms of encephalopathy were recorded during treatment
same,episodes of vomiting,[10]; [14],one
same,malaise,[10]; [14],no malaise
same,signs of encephalopathy during prophylactic treatment,"[10]; Example 4, 50 mg oral loading dose day 1, 3×50 mg oral days 1-4, four cycles",No signs of encephalopathy after four cycles
same,signs of encephalopathy during prophylactic treatment,"[10]; Example 5, dosage as in Example 4, six cycles",no signs of encephalopathy
same,signs of encephalopathy during prophylactic treatment,"[10]; Example 6, oral ifosfamide, VP-16 and methylene blue, dosage as in Example 4, six cycles",Absolutely no signs of encephalopathy
same,CNS toxicity during prophylactic treatment,"[10]; Example 7, dosage as in Example 4, one cycle",No CNS toxicity was exhibited
same,symptoms associated with encephalopathy during prophylactic treatment,"[10]; Example 8, dosage as in Examples 4-7, six cycles",never developed the symptoms associated with encephalopathy
same,signs of encephalopathy during prophylactic treatment,"[10]; Example 9, prophylactic methylene blue in third cycle, ifosfamide, Mitomycin C, cisplatin",no further signs of encephalopathy
same,patient's condition during prophylactic treatment,"[10]; Example 9, third cycle",remained conscious and alert throughout treatment
same,symptoms of encephalopathy next day,"[11]; 50 mg dose repeated about 4 hours later, next day",no signs of confusion or other symptoms of encephalopathy
same,malaise and nausea after methylene blue,"[11]; 50 mg slow intravenous injection, after 1 hour",The malaise and nausea which they had previously experienced were gone
same,patient's condition after methylene blue,"[11]; 50 mg slow intravenous injection, after 1 hour, continued ifosfamide infusion","much calmer, coherent and able to articulate the fearful nature of their hallucinations"
same,sleep/condition after repeated dose,"[11]; second 50 mg dose, that night and next day",slept well and was much better the next day
same,"formation of chloracetaldehyde from 2-chlorethylamine by the plasma, relative to that in absence of methylene blue",[12],20%
same,inhibition of plasma amine oxidase by methylene blue,[12],80%
